Laboratory results: ChEMBL document CHEMBL5370678, “Covalent Stapling of the Cereblon Sensor Loop Histidine Using Sulfur-Heterocycle Exchange” (ACS Med Chem Lett, 2023)
Calls of active or inactive are those of the source. The calls are words filed in the database; no cut-off is given here.

Legend:
Protein cereblon = Protein cereblon (Homo sapiens, UniProt Q96SW2); experiment: Displacement of BODIPY-lenalidomide from human N-terminal NanoLuc-fused CRBN expressed in HEK293T cells incubated for 2 hrs by NanoBRET assay; assay type: cell-based
Protein cereblon, sequence (Q96SW2 whole entry, the tested form may be a part): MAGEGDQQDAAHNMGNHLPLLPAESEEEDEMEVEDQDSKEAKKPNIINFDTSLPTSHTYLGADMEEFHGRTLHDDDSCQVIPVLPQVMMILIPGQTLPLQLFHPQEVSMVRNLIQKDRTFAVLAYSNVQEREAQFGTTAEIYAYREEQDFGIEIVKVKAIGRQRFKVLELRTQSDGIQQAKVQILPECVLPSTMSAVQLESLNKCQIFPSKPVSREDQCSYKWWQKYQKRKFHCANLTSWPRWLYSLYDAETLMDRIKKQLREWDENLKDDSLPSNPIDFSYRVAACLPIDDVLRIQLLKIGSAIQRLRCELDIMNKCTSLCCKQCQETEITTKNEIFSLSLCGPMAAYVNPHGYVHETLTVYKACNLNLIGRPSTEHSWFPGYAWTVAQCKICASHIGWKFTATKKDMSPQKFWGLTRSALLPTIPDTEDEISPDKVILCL

[1] = Binding affinity to human StrepTag-Avi-CRBN-His6-Spy-fused DDB1deltaB mutant complex expressed in baculovirus infected high-five insect cells assessed as labeling of His353 residue at 15 uM measured after 24 hrs by LC-MS analysis relative to control; settings: Insect cell
[2] = Stability of the compound in human plasma assessed as half life at 1 uM by LC-MS/MS analysis; assay type: ADME, cell-free
[3] = Drug metabolism in human plasma assessed as glutarimide-hydrolysis at 10 uM measured after 120 mins by LC-UV-MS analysis; assay type: ADME, cell-free; settings: 2 h
[4] = Cytotoxicity against human MOLT-4 cells assessed as reduction in cell viability incubated for 24 hrs by CellTiter Glo Luminescent cell viability assay; assay type: toxicity, cell-based
[5] = Drug metabolism in human plasma assessed as sulfonyl imidazole motif hydrolysis at 10 uM measured after 120 mins by LC-UV-MS analysis; assay type: ADME, cell-free; settings: 2 h
[6] = Stability of the compound in human hepatocytes assessed as half life at […] by LC-MS/MS analysis; assay type: ADME, cell-based, Hepatocyte
[7] = Stability of the compound in human liver microsomes assessed as half life at 1 uM by LC-MS/MS analysis; assay type: ADME, Microsome
MOLT-4 = experiment: Induction of protein degradation in human MOLT-4 cells at 1 uM measured after 5 hrs by LC-MS analysis; assay type: functional, cell-based

SMILES	Activity [1] [%]	half-life at 1 µM [2] [h]	further results
O=C1CCC(N2Cc3ccc(S(=O)(=O)F)cc3C2=O)C(=O)N1 (centres undefined)	> 95	–	IC50 (Protein cereblon): 0.0011 µM
Cc1cn(S(=O)(=O)c2ccc3c(c2)C(=O)N(C2CCC(=O)NC2=O)C3)cn1 (centres undefined)	< 5	4.78	–
O=C1CCC(N2Cc3ccc(S(=O)(=O)n4ccc(F)n4)cc3C2=O)C(=O)N1 (centres undefined)	37	1.92	–
O=C1CCC(N2Cc3ccc(S(=O)(=O)n4cncn4)cc3C2=O)C(=O)N1 (centres undefined)	90	< 0.0167	–
O=C1CCC(N2Cc3ccc(S(=O)(=O)n4cc(C(F)(F)F)cn4)cc3C2=O)C(=O)N1 (centres undefined)	90	0.167	–
O=C1CCC(N2Cc3ccc(S(=O)(=O)n4cc(F)cn4)cc3C2=O)C(=O)N1 (centres undefined)	67	1.53	–
O=C1CCC(N2Cc3ccc(S(=O)(=O)n4ccc(C(F)(F)F)n4)cc3C2=O)C(=O)N1 (centres undefined)	90	0.233	–
Cc1cnn(S(=O)(=O)c2ccc3c(c2)C(=O)N(C2CCC(=O)NC2=O)C3)c1 (centres undefined)	< 5	> 4.82	–
O=C1CCC(N2Cc3ccc(S(=O)(=O)n4ccc(=O)[nH]c4=O)cc3C2=O)C(=O)N1 (centres undefined)	90	2.72	–
O=C1CCC(N2Cc3ccc(S(=O)(=O)n4cnc(F)c4)cc3C2=O)C(=O)N1 (centres undefined)	90	0.317	–
Nc1ccn(S(=O)(=O)c2ccc3c(c2)C(=O)N(C2CCC(=O)NC2=O)C3)c(=O)n1 (centres undefined)	55	> 4.82	–
O=C1CCC(N2Cc3ccccc3C2=O)C(=O)N1 (centres undefined)	–	–	Drug metabolism [3]: Metabolite_Detected; CC50 at 24 h [4]: > 10 µM; Drug metabolism [5]: Metabolite_Detected; half-life [6]: > 3.62 h; half-life at 1 µM [7]: > 2.42 h
O=C1CCC(N2Cc3ccc(S(=O)(=O)n4ccnc4)cc3C2=O)C(=O)N1 (centres undefined)	> 95	1.57	CC50 at 24 h [4]: > 10 µM; Activity (MOLT-4): inactive; half-life [6]: > 3.62 h; half-life at 1 µM [7]: > 2.42 h
O=C1CCC(N2Cc3ccc(OS(=O)(=O)F)cc3C2=O)C(=O)N1 (centres undefined)	75	–	–
O=C1CCC(N2Cc3ccc(S(=O)(=O)n4cnc(C(F)(F)F)c4)cc3C2=O)C(=O)N1 (centres undefined)	75	0.108	–
O=C1CCC(N2Cc3ccc(S(=O)(=O)n4nccn4)cc3C2=O)C(=O)N1 (centres undefined)	90	–	–
Cc1cn(S(=O)(=O)c2ccc3c(c2)C(=O)N(C2CCC(=O)NC2=O)C3)c(=O)[nH]c1=O (centres undefined)	90	3.98	–
